Here are results for 9 compounds from patent publication US9321756B2, “Azole compounds as PIM inhibitors” (priority 2011, dated 2016).

Test [1] addresses full length recombinant Pim-1 (Homo sapiens (Human), UniProt P11309). Nature of the test: Pim enzyme assay (HTRF, phosphorylation of biotinylated-BAD (S112) peptide), Pim-1. In kind it is biochemical. In general terms: In TR-FRET formats the signal depends on donor and acceptor labels being close together.
The target of test [2] is full length recombinant Pim-2 (Homo sapiens (Human), UniProt Q9P1W9). Nature of the test: Pim enzyme assay (HTRF, phosphorylation of biotinylated-BAD (S112) peptide), Pim-2. In kind it is biochemical. Conditions: read-out: Pim2_IC50.
The test system of the next test is KMS-12-BM myeloma cells. Nature of the test: Pim cell assay KMS12 (phospho-BAD and total BAD). In kind it is cell-based. Conditions: Homo sapiens, 2 h. The method, then:
The assay for determination of the antiproliferative activity of multiple Pim inhibitors in the KMS-12-BM myeloma cells measures levels of phospho-BAD and total BAD. It was conducted as follows: […] The cells were then incubated overnight at 37° C., 5% CO2. […] This dilution in DMSO was then diluted again into cell growth medium. […] The cell plates were then incubated with compound for 2 hours at 37° C., 5% CO2. After a two h incubation, the compound-containing medium was removed. […] The cell plates containing lysis buffer were then immediately stored at -70° C. These prepared lysates were then assayed for phospho and total BAD according to the manufacturer's protocols (Meso Scale Diagnostics, Cat#[…]-3 & #[…]-3). The plates were read on the MSD Sector Imager 6000, and results were calculated according to the assay protocols ((% Phosphoprotein=((2×Phospho signal)/(Phospho signal+Total signal))×100)).

In test [3] the target is full length recombinant Pim-3 (Homo sapiens (Human), UniProt Q86V86). Nature of the test: Pim enzyme assay (HTRF, phosphorylation of biotinylated-BAD (S112) peptide), Pim-3. It is filed as biochemical. Conditions: Pim-3 enzyme assay; read-out: Pim3 IC50. The method, boiled down:
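Full-length recombinant Pim-3 phosphorylated biotinylated BAD (S112) peptide in 60 mM Hepes pH 7.0, 0.05% BSA, 2 mM DTT for 1 h 30 min at 22 °C. After EDTA stop, HTRF was read with Eu anti-phospho-BAD and streptavidin-APC. IC50 came from 4-parameter logistic fit of percent-of-control values.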

The test system of test [4] is Pim-1 stably transfected U2OS human osteogenic sarcoma line. Nature of the test: Pim cell assay U2OS (phospho-BAD normalized against total BAD), Pim-1 transfected. In kind it is cell-based. Conditions: Homo sapiens, U2OS, read-out: U2OS Pim1_Cell_IC50.
Test [5] has as its system Pim-2 stably transfected U2OS human osteogenic sarcoma line. Nature of the test: Pim cell assay U2OS (phospho-BAD normalized against total BAD), Pim-2 transfected. It is filed as cell-based. Conditions: Homo sapiens; U2OS cells, Pim-2 transfected; read-out: U2OS Pim2_Cell_IC50.
Setting [6] is: HTRF, 10-point curve, high dose 1 uM, 2 h at RT, read-out: Pim_1_IC50.
Setting [7] is: HTRF, 10-point curve, high dose 1 uM, 45 min at RT.

Molecules are shown by their SMILES. Where two headings read alike, the source gives them in different places.

Chain of full length recombinant Pim-2 (Q9P1W9 whole entry): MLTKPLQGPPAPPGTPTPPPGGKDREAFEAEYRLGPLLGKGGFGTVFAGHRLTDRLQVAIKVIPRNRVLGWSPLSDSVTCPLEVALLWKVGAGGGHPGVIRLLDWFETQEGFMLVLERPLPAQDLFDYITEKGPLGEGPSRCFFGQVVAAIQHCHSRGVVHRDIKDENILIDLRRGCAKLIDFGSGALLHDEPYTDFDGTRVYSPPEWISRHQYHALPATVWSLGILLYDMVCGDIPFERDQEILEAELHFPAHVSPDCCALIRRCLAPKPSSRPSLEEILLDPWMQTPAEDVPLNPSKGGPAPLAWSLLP
Chain of full length recombinant Pim-1 (P11309 whole entry): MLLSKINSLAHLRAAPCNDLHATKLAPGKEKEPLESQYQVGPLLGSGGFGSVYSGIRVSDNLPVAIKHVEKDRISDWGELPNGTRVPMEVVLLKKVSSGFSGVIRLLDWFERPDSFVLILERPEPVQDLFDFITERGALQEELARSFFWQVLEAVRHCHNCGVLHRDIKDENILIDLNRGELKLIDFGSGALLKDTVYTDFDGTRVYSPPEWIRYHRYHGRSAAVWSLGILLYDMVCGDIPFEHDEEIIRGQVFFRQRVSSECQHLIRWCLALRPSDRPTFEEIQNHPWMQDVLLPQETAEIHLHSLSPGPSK

On to `CC(C)Nc1nccc(-c2c[nH]c3ccc(-c4nnc(NC(C)C)o4)cc23)n1` [Example 287, N-isopropyl-5-(3-(2-(isopropylamino)pyrimidin-4-yl)-1H-indol-5-yl)-1,3,4-oxadiazol-2-amine], for which the IC50 in test [1] (setting [6]) amounted to 4.15 nM; in test [2], 11.1 nM; in the test with KMS-12-BM myeloma cells (read-out: KMS12_IC50 (uM)) it was 1.56 µM.
`CC(C)Nc1nnc(-c2ccc3[nH]cc(-c4ccnc(C5CC5)n4)c3c2)o1` [Example 301, 5-(3-(2-cyclopropyl-4-pyrimidinyl)-1H-indol-5-yl)-N-(1-methylethyl)-1,3,4-oxadiazol-2-amine]: the results for the IC50 (in test [1] (setting [6]); in test [2] (setting [7]); in the test on KMS-12-BM myeloma cells (read-out: KMS12_IC50)) were 2.54 nM, 4.65 nM and 0.945 µM, respectively.
For `CC(C)Nc1nnc(-c2ccc3[nH]cc(NC(=O)C4CC4)c3c2)o1` [Example 291, N-(5-(5-(isopropylamino)-1,3,4-oxadiazol-2-yl)-1H-indol-3-yl)cyclopropanecarboxamide], in that order: 53.1 nM, 25.6 nM and 1.44 µM.
On to `CC(C)Nc1nnc(-c2ccc3[nH]cc(-c4ncc(C(N)=O)c(C5CC5)n4)c3c2)o1` [Example 281, 4-cyclopropyl-2-(5-(5-((1-methylethyl)amino)-1,3,4-oxadiazol-2-yl)-1H-indol-3-yl)-5-pyrimidinecarboxamide], for which the results for the IC50 (in test [1] (setting [6]); in test [2] (setting [7]); in the test on KMS-12-BM myeloma cells (read-out: KMS12_IC50)) were 1.19 nM, 2.15 nM and 1.28 µM, respectively.
Take `CC(C)Nc1nnc(-c2cc3c(-c4nccc(C5CC5)n4)c[nH]c3cc2F)o1` [Example 279, 5-(3-(4-cyclopropyl-2-pyrimidinyl)-6-fluoro-1H-indol-5-yl)-N-(1-methylethyl)-1,3,4-oxadiazol-2-amine]: the results for the IC50 (in test [1] (setting [6]); in test [2] (setting [7]); in the test on KMS-12-BM myeloma cells (read-out: KMS12_IC50)) were 2.38 nM, 1.88 nM and 0.746 µM, respectively.
`CC(C)Nc1nc(-c2c[nH]c3ccc(-c4nnc(NC(C)C)o4)cc23)cc(=O)[nH]1` [Example 288, 2-(isopropylamino)-6-(5-(5-(isopropylamino)-1,3,4-oxadiazol-2-yl)-1H-indol-3-yl)pyrimidin-4(3H)-one]: the IC50 in test [1] (setting [6]) is 2.44 nM; in test [2] (setting [7]), 14.3 nM; with KMS-12-BM myeloma cells (read-out: KMS12_IC50) it was 4.2 µM.
For `CC(C)Nc1nnc(-c2ccc3[nH]cc(-c4cc(=O)[nH]c(C5CC5)n4)c3c2)o1` [Example 300, 2-cyclopropyl-6-(5-(5-((1-methylethyl)amino)-1,3,4-oxadiazol-2-yl)-1H-indol-3-yl)-4(3H)-pyrimidinone], in that order: 1.2 nM, 2.24 nM and 1.44 µM.
On to `CC(C)Nc1nnc(-c2cc3c(-c4cncc(C5CC5)n4)c[nH]c3cc2F)o1` [Example 280, 5-(3-(6-cyclopropyl-2-pyrazinyl)-6-fluoro-1H-indol-5-yl)-N-(1-methylethyl)-1,3,4-oxadiazol], for which the IC50 in test [1] was determined as 4.71 nM; in test [2] (setting [7]) it was 8.04 nM; in the test on KMS-12-BM myeloma cells (read-out: KMS12_IC50) it was 3.83 µM.
On to `C[C@H]1CCCN(c2ccnc(-c3c[nH]c4ccc(-c5nnc(N)o5)cc34)n2)C1` (stereo in doubt) [Example 105, 5-(3-(4-(3-methyl-1-piperidinyl)-2-pyrimidinyl)-1H-indol-5-yl)-1,3,4-oxadiazol-2-amine], for which the IC50 in test [1] (Pim-1 enzyme assay, read-out: Pim_1_IC50) turned out to be 5.5 nM; in test [2] (Pim-2 enzyme assay) it was 4.81 nM; in test [3] it was 1.78 nM; in test [4], 104 nM; in test [5], 920 nM.
